PMC6348443 (Journal of Medicinal Chemistry, 2018)
Where a name gives a salt, the structure may show the parent alone.

Tests used:
MOR [1] = target: T1, MOR (Rattus norvegicus, UniProt P33535); assay: competition radioligand binding, rat brain membranes, [3H]DAMGO; settings: for Ki: rat brain membranes, read-out: opioid receptor binding Ki MOR
T1 construct: Membranes were prepared from Sprague-Dawley rat brains or guinea-pig brains according to the described procedures; tissue Labortierkunde und Laborgenetik, Medizinische Universität Wien; host or cells: Sprague-Dawley rat brain without cerebella
Protocol: (§1) Competition binding assays using rat brain (MOR and DOR) and guinea-pig brain (KOR) membranes (Table 1) were performed according to published procedures.[44],[49] […] In addition, we have assessed binding at the human opioid receptors stably transfected in Chinese hamster ovary (CHO) cells (Table S1).
(§2) Membranes were prepared from Sprague-Dawley rat brains or guinea-pig brains according to the described procedures.[44],[45] Brains without cerebella were homogenized on ice in 5 vol/wt of ice-cold 50 mM Tris-HCl buffer (pH 7.4) and diluted in 30 vol/wt of the same buffer. After centrifugation at 40 000g for 20 min at 4 °C, the pellets were resuspended in 30 vol/wt of 50 mM Tris-HCl buffer (pH 7.4) and incubated at 37 °C for 30 min. The centrifugation step described above was repeated, and the final pellets were resuspended in 5 vol/wt of 50 mM Tris-HCl buffer (pH 7.4) containing 0.32 M sucrose and stored at −80 °C until use.
(§3) Rat brain membranes were incubated with either [^3H]DAMGO (1 nM, 45 min, 35 °C) or [^3H][Ile^5,6]deltorphin II (0.5 nM, 45 min, 35 °C) for labeling MOR or DOR receptors, respectively. Guinea-pig brain membranes were incubated with [^3H]U69,593 (1 nM, 30 min, 30 °C) for labeling KOR. Binding assays with CHO cell membranes were conducted at 25 °C for 60 min using [^3H]DAMGO (1 nM) or [^3H]diprenorphine (0.2 nM) for labeling MOR or DOR, respectively. Nonspecific binding was determined using 10 μM naloxone (rodent brain) or 1–10 μM of the unlabeled counterpart of each radioligand (CHO cells). Reactions were terminated by rapid filtration through Whatman glass fiber GF/C filters. Filters were washed three times with 5 mL of ice-cold 50 mM Tris-HCl buffer (pH 7.4) using a Brandel M24R cell harvester (Gaithersburg, MD). Radioactivity retained on the filters was counted by liquid scintillation counting using a Beckman Coulter LS6500 (Beckman Coulter Inc., Fullerton, CA). All binding experiments were performed in duplicate and repeated at least three times.
(§4) Data were analyzed and graphically processed using the GraphPad Prism 5.0 Software (GraphPad Prism Software Inc., San Diego, CA). For in vitro assays, inhibition constant (Ki in nM), potency (EC50 in nM), and efficacy (% stimulation) values were determined from concentration–response curves by nonlinear regression analysis. The Ki values were determined by the method of Cheng and Prusoff.[66] In the [^35S]GTPγS binding assays, efficacy was determined relative to the reference full opioid agonists, DAMGO (MOR), DPDPE (DOR), and U69,593 (KOR). In vitro data are presented as mean ± SEM of three to four independent experiments each performed in duplicate. […] Each experimental group included six to seven mice. Data were statistically evaluated using one-way ANOVA with Tukey’s post hoc test for multiple comparisons with significance set at P < 0.05.

DOR [2] = target: T2, DOR (Rattus norvegicus, UniProt P33533); assay: competition radioligand binding, rat brain membranes, [3H][Ile5,6]deltorphin II; settings: rat brain membranes; read-out: opioid receptor binding Ki DOR
T2 construct: Membranes were prepared from Sprague-Dawley rat brains or guinea-pig brains according to the described procedures; tissue Labortierkunde und Laborgenetik, Medizinische Universität Wien; host or cells: Sprague-Dawley rat brain without cerebella
Protocol: as §1, §2, §3, §4

KOR [3] = target: T3, KOR (Cavia porcellus, UniProt P41144); assay: competition radioligand binding, guinea-pig brain membranes, [3H]U69,593; settings: guinea-pig brain membranes; read-out: opioid receptor binding Ki KOR
T3 construct: Membranes were prepared from Sprague-Dawley rat brains or guinea-pig brains according to the described procedures; tissue Labortierkunde und Laborgenetik, Medizinische Universität Wien; host or cells: guinea-pig brain without cerebella
Protocol: as §1, §2, §3, §4

MOR [4] = target: T4, MOR (Homo sapiens, UniProt P35372); assay: [35S]GTPγS binding assay, CHO-hMOR membranes; type: biochemical; settings: for EC50: [35S]GTPγS, CHO human MOR membranes, read-out: MOR EC50; for Emax: relative to reference full agonist DAMGO, read-out: MOR % stim.
T4 construct: host or cells: CHO (CHO-hMOR)
Protocol: (§5) Efficacies are presented as percentage stimulation relative to the standard full agonists, [D-Ala^2,N-Me-Phe4,Gly-ol^5]enkephalin (DAMGO for MOR),[53] [D-Pen^2,D-Pen^5]enkephalin (DPDPE for DOR)[54] and N-methyl-2-phenyl-N-[(5R,7S,8S)-7-(pyrrolidin-1-yl)-1-oxaspiro[4.5]dec-8-yl]acetamide (U69,593 for KOR).[55]
(§6) Membranes from CHO cells expressing human opioid receptors were prepared in 50 mM Tris-HCl buffer (pH 7.7) according to a previously described procedure.[64] Cells expressing human opioid receptors grown at confluence were removed from the culture plates by scraping, homogenized in 50 mM Tris buffer (pH 7.7), using a Polytron homogenizer, then centrifuged once and washed by an additional centrifugation at 27 000g for 15 min, at 4 °C. The final pellet was resuspended in Tris buffer and stored at −80 °C until use. Protein content of brain and cell membrane preparation homogenates was determined by the method of Bradford using bovine serum albumin as the standard.[65]
(§7) Binding of [^35S]GTPγS to membranes from CHO cells stably expressing the human opioid receptors was conducted according to the published procedures.[49],[64] Cell membranes (5–10 μg) in 20 mM HEPES, 10 mM MgCl2, and 100 mM NaCl (pH 7.4) were incubated with 0.05 nM [^35S]GTPγS, 10 μM GDP, and various concentrations of test compound in a final volume of 1 mL, for 60 min at 25 °C. Nonspecific binding was determined using 10 μM GTPγS, and the basal binding was determined in the absence of test ligand. Samples are filtered over glass Whatman glass GF/B fiber filters and counted as described for binding assays. All experiments were performed in duplicate and repeated at least three times.
as §4

DOR [5] = target: T5, DOR (Homo sapiens, UniProt P41143); assay: [35S]GTPγS binding assay, CHO-hDOR membranes; type: biochemical; settings: for increased agonist potency at DOR vs MOR: [35S]GTPγS EC50; for EC50: [35S]GTPγS, CHO human DOR membranes; for Emax: relative to reference full agonist DPDPE, read-out: DOR % stim.
T5 construct: host or cells: CHO (CHO-hDOR)
Protocol: as §5, §6, §7, §4

KOR [6] = target: T6, KOR (Homo sapiens, UniProt P41145); assay: [35S]GTPγS binding assay, CHO-hKOR membranes; type: biochemical; settings: for EC50: [35S]GTPγS, CHO human KOR membranes, read-out: KOR EC50; for functional profile at KOR (full/partial agonist): partial agonist <85% of the response to U69,593; for Emax: relative to reference full agonist U69,593, read-out: KOR % stim.
T6 construct: host or cells: CHO (CHO-hKOR)
Protocol: as §5, §6, §7, §4

| SMILES | Ki (MOR [1]) | Ki (DOR [2]) | Ki (KOR [3]) | EC50 (MOR [4]) | Emax (MOR [4]) | increased agonist potency at DOR vs MOR (DOR [5]) | EC50 (DOR [5]) | Emax (DOR [5]) | EC50 (KOR [6]) | functional profile at KOR (full/partial agonist) (KOR [6]) | Emax (KOR [6]) | increase in MOR binding affinity vs comparator (MOR [1]; rat brain, 17b vs 4b, 16a/b vs 7a/b, 22a/b vs 7a, 7b and 9b, 14a vs 14b) | Ki ratio MOR/DOR/KOR (MOR [1]; from Ki in rat (MOR, DOR) and guinea-pig (KOR) brain membranes) |
| --- | --- | --- | --- | --- | --- | --- | --- | --- | --- | --- | --- | --- | --- |
| CO[C@@]12CC[C@@H](NCCCC(=O)O)[C@@H]3Oc4c(O)ccc5c4[C@@]31CCN(C)[C@@H]2C5 [Compound 21b] | 1.41 ± 0.13 nM | 6.61 ± 0.67 nM | 147 ± 13 nM | 12.3 ± 6.8 nM | 86 ± 7% | 2–4 times | 6.06 ± 1.07 nM | 103 ± 6% | 3400 ± 1980 nM | full agonists | 74 ± 5% |  |  |
| CO[C@@]12CC[C@H](N[C@@H](C(=O)O)C(C)C)[C@@H]3Oc4c(O)ccc5c4[C@@]31CCN(C)[C@@H]2C5 [Compound 16a] | 1.7 ± 0.09 nM | 1.93 ± 0.24 nM | 202 ± 3 nM | 4.51 ± 2.35 nM | 105 ± 4% | ca. 4 times | 1.12 ± 0.69 nM | 93 ± 4% | 2220 ± 818 nM | full agonists | 96 ± 16% | 2–3 times |  |
| CO[C@@]12CC[C@H](N[C@H](C(=O)O)C(C)C)[C@@H]3Oc4c(O)ccc5c4[C@@]31CCN(C)[C@@H]2C5 [Compound 7a, (2S)-2-[(4,5α-Epoxy-3-hydroxy-14β-methoxy-17-methylmorphinan-6α-yl)amino]-3-methylbutyric Acid Dihydrochloride] | 3.16 ± 0.25 nM | 3.91 ± 0.3 nM | 325 ± 19 nM | 10.5 ± 4 nM | 95 ± 8% |  | 33.8 ± 8.9 nM | 91 ± 2% | 462 ± 126 nM | partial agonist | 51 ± 0.5% |  |  |
| CO[C@@]12CC[C@H](N[C@@H](Cc3c[nH]c4ccccc34)C(=O)O)[C@@H]3Oc4c(O)ccc5c4[C@@]31CCN(C)[C@@H]2C5 [Compound 10a, (2S)-2-[(4,5α-Epoxy-3-hydroxy-14β-methoxy-17-methylmorphinan-6α-yl)-amino]-3-(1H-indolo-3yl)propionic Acid Dihydrochloride] | 0.36 ± 0.01 nM | 1.02 ± 0.12 nM | 25.1 ± 9.3 nM | 0.51 ± 0.34 nM | 93 ± 9% |  | 2.52 ± 1.41 nM | 102 ± 8% | 70.1 ± 20.5 nM |  | 61 ± 8% |  |  |
| CO[C@@]12CC[C@@H](NCCC(=O)O)[C@@H]3Oc4c(O)ccc5c4[C@@]31CCN(C)[C@@H]2C5 [Compound 20b, 3-[(4,5α-Epoxy-3-hydroxy-14β-methoxy-17-methylmorphinan-6β-yl)amino]propionic Acid Dihydrochloride] | 1.04 ± 0.04 nM | 13.9 ± 1.7 nM | 71.4 ± 4.6 nM | 5.74 ± 0.47 nM | ~80% |  | 20.1 ± 10.7 nM | 99 ± 3% | 622 ± 311 nM |  | 67 ± 12% |  | 1/13/69 |
